Measurements taken from patent US20220213092A1, “BICYCLIC PYRAZOLE BRUTON'S TYROSINE KINASE INHIBITORS” (AbbVie Inc., priority 2020, published 2022).

These molecules were tested against T1, Phosphorylation of Y223 of BTK (Homo sapiens, UniProt Q06187) (assay: Whole blood compound screening, phosphorylation of Y223 site of BTK (MSD assay)). Settings: healthy human whole blood, 2 hours at 37° C., 3 separate donors; read-out: WB BTK-pY223 EC50.
T1 construct: host or cells: healthy human whole blood, 3 donors
T1 sequence (Q06187 whole entry): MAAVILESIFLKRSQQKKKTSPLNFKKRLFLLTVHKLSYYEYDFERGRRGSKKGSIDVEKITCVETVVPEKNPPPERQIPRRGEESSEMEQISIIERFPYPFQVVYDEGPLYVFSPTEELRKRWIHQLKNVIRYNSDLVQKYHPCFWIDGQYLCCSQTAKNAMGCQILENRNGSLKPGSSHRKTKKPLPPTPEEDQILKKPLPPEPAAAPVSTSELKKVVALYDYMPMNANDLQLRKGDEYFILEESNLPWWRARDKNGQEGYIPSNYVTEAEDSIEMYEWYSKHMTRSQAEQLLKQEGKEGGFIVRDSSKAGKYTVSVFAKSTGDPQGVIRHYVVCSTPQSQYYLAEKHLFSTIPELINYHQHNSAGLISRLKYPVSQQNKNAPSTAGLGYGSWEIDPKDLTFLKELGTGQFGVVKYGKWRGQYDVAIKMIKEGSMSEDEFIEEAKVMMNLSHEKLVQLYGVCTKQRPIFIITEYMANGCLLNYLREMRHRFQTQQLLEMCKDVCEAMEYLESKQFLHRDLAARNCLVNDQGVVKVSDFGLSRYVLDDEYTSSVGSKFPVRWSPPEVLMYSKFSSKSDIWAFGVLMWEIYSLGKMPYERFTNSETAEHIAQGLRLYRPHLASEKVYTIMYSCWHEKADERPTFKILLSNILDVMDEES
Type: cell-based
Procedure: Healthy human whole blood (WB) was collected from […]™ Technologies or […]® in sodium heparinized tubes. Whole blood was stored at ambient temperature to avoid coagulation. Each compound was tested in 3 separate donors. Compound stock solutions (10 mM) were used to generate dose titration (8 concentrations, starting concentration 10 μM, 1:4 dilution) in appropriate volume of dimethyl sulfoxide (0.2%). Whole blood was incubated with compounds in 96-well plates for 2 hours in tissue culture incubators at 37° C. under a 5% CO2 atmosphere. The whole blood was lysed in equal volume of lysis buffer (Cell Signaling Technology®, Danvers, Mass.) containing complete protease inhibitor tablet, PhosSTOP™ tablet, sodium orthovanadate and sodium fluoride and phenylmethanesulfonyl fluoride solution. The lysed whole blood was then frozen at −80° C. for overnight.
Phosphorylation of Y223 of BTK was measured using an MSD assay (Meso Scale Diagnostics, LLC, Rockville, Md.). The thawed lysed whole blood was incubated with the capturing antibody rabbit anti-human BTK (D3H5) (Cell Signaling Technology, Danvers, Mass.) at 4° C. overnight. After washing out the unbound samples, the detection antibody biotinylated rabbit anti-pY223-BTK(D9T6H) (Cell Signaling Technology®, Danvers, Mass.) was added to the plates. After washing out the unbound antibodies, SULFO-TAG Streptavidin (Meso Scale Diagnostics, LLC, Rockville, Md.) was used for detection on Meso Sector S600 (Meso Scale Diagnostics, LLC, Rockville, Md.).
The EC50 values were determined using software from Dotmatics. The activity of exemplary compounds is illustrated below.

EC50 [nM]	SMILES
18.3	C=CC(=O)N1CCC(N2CCNc3c2nn(-c2ccc(Oc4ccccc4)cc2)c3C(N)=O)CC1 [Example 16, 2-(4-phenoxyphenyl)-7-[1-(prop-2-enoyl)piperidin-4-yl]-4,5,6,7-tetrahydro-2H-pyrazolo[3,4-b]pyrazine-3-carboxamide]

These molecules were tested against T2, BTK (Homo sapiens, UniProt Q06187) (assay: BTK kinase electrophoretic mobility shift assay (MSA)). Settings: 50 μM ATP, 0.5 nM BTK enzyme (Nanosyn-293HEK, WT), 3 hours at 25° C.; all examples except 50, 51, 62 and 63; read-out: BTK IC50.
T2 construct: purchased Nanosyn, Santa Clara, Calif; host or cells: 293HEK
T2 sequence (Q06187 whole entry): as above
Type: biochemical
Procedure: Kinase activity, unless otherwise indicated, was measured in vitro using an electrophoretic mobility shift assay (MSA). The phosphorylation of a peptide substrate by BTK and other kinases was measured. The kinase reactions were assembled in a total volume of 25 μL per well in 384 well plates. The following was added to each well: compound buffer (or control); enzyme buffer; and substrate buffer, as further described below.
The terminated reactions were analyzed using a 12 channel LABCHIP® 3000 microfluidic detection instrument (available from Caliper Life Sciences, Waltham, Mass.). […] Change in the relative fluorescence intensity of the substrate and product peaks was the parameter measured, reflecting enzyme activity. In the presence of an inhibitor, the ratio between product and substrate was altered. The signal of the product decreased, while the signal of the substrate increased. Capillary electrophoregrams (RDA acquisition files) were analyzed using HTS Well Analyzer software (available from Caliper Life Sciences, Waltham, Mass.).
Activity in each sample was determined as the product to sum ratio (PSR): P/(S+P), where P was the peak height of the product peptide and S was the peak height of the substrate peptide. For each compound, enzyme activity was measured at various concentrations (12 concentrations of compound spaced by 3× dilution intervals). Negative control samples (00 inhibition in the absence of inhibitor) and positive control samples (10000 inhibition, in the presence of 20 mM EDTA) were assembled in replicates of four and were used to calculate 00 inhibition values for each inhibitor at each concentration. Percent inhibition (Pinh) was determined using following equation: Pinh=(PSR0%−PSRinh)/(PSR0%−PSR100%)*100, where PSRinh was the product sum ratio in the presence of inhibitor, PSR0% was the average product sum ratio in the absence of inhibitor and PSR100% was the average product sum ratio in 100%−inhibition control samples.
The IC50 values of inhibitors were determined by 4 parameter sigmoidal dose response model fitting of the inhibition curves (Pinh versus inhibitor concentration) using XLfit® 4 software (available from IDBS, Boston, Mass.).

IC50 [nM]	SMILES
0.592	C=CC(=O)N1CCC(N2CCNc3c2nn(-c2ccc(Oc4ccccc4)cc2)c3C(N)=O)CC1 [Example 16, 2-(4-phenoxyphenyl)-7-[1-(prop-2-enoyl)piperidin-4-yl]-4,5,6,7-tetrahydro-2H-pyrazolo[3,4-b]pyrazine-3-carboxamide]
4.66	C=CC(=O)N1CCC(C2CCNc3c2nn(-c2ccc(Oc4ccc(Cl)cc4)cc2)c3C(N)=O)CC1 (centres unmarked) [Example 28, 2-[4-(4-chlorophenoxy)phenyl]-7-[1-(prop-2-enoyl)piperidin-4-yl]-4,5,6,7-tetrahydro-2H-pyrazolo[4,3-b]pyridine-3-carboxamide]
27.2	C=CC(=O)N1CCN([C@H]2CCNc3c2nn(-c2ccc(Oc4ccccc4C(F)(F)F)cc2)c3C(N)=O)CC1 [Example 61, (7S)-7-[4-(prop-2-enoyl)piperazin-1-yl]-2-{4-[2-(trifluoromethyl)phenoxy]phenyl}-4,5,6,7-tetrahydro-2H-pyrazolo[4,3-b]pyridine-3-carboxamide]
8.61	CC#CC(=O)N1CCC(N2CCNc3c2nn(-c2ccc(Oc4ccccc4)cc2)c3C(N)=O)CC1 [Example 19, 7-[1-(but-2-ynoyl)piperidin-4-yl]-2-(4-phenoxyphenyl)-4,5,6,7-tetrahydro-2H-pyrazolo[3,4-b]pyrazine-3-carboxamide]
33.3	C=CC(=O)N1CCN(C2CCNc3c2nn(-c2ccc(Oc4ccccc4)cc2Cl)c3C(N)=O)CC1 (centres unmarked) [Example 52, 2-(2-chloro-4-phenoxyphenyl)-7-[4-(prop-2-enoyl)piperazin-1-yl]-4,5,6,7-tetrahydro-2H-pyrazolo[4,3-b]pyridine-3-carboxamide]
4.7	C=CC(=O)N1CCC[C@H]([C@@H]2CCNc3c2nn(-c2ccc(Oc4ccccc4)cc2)c3C(N)=O)C1 (racemic) [Example 8, (7SR)-2-(4-phenoxyphenyl)-7-[(3RS)-1-(prop-2-enoyl)piperidin-3-yl]-4,5,6,7-tetrahydro-2H-pyrazolo[4,3-b]pyridine-3-carboxamide]
11.5	C=CC(=O)N1CCN([C@H]2CCNc3c2nn(-c2ccc(Oc4ccccc4)cc2)c3C(N)=O)CC1 [Example 7, (7S)-2-(4-phenoxyphenyl)-7-[4-(prop-2-enoyl)piperazin-1-yl]-4,5,6,7-tetrahydro-2H-pyrazolo[4,3-b]pyridine-3-carboxamide]
120	C=CC(=O)N1CCN([C@H]2CCNc3c2nn(-c2ccc(Oc4ccccc4OC)cc2)c3C(N)=O)CC1 [Example 97, (7S)-2-[4-(2-methoxyphenoxy)phenyl]-7-[4-(prop-2-enoyl)piperazin-1-yl]-4,5,6,7-tetrahydro-2H-pyrazolo[4,3-b]pyridine-3-carboxamide]
37.5	C=CC(=O)N1CCC(C2CCNc3c2nn(-c2ccc(Oc4ccccc4)cc2OC)c3C(N)=O)CC1 (centres unmarked) [Example 14, 2-(2-methoxy-4-phenoxyphenyl)-7-[1-(prop-2-enoyl)piperidin-4-yl]-4,5,6,7-tetrahydro-2H-pyrazolo[4,3-b]pyridine-3-carboxamide]
13.8	C=CC(=O)N1CCC[C@@H]([C@@H]2CCNc3c2nn(-c2ccc(Oc4ccccc4)cc2)c3C(N)=O)C1 (racemic) [Example 9, (7RS)-2-(4-phenoxyphenyl)-7-[(3RS)-1-(prop-2-enoyl)piperidin-3-yl]-4,5,6,7-tetrahydro-2H-pyrazolo[4,3-b]pyridine-3-carboxamide]
2.16	C=CC(=O)N1CCN(C2CCNc3c2nn(-c2ccc(Oc4ccccc4)cc2)c3C(N)=O)CC12CCC2 (centres unmarked) [Example 26, 2-(4-phenoxyphenyl)-7-[5-(prop-2-enoyl)-5,8-diazaspiro[3.5]nonan-8-yl]-4,5,6,7-tetrahydro-2H-pyrazolo[4,3-b]pyridine-3-carboxamide]
59.2	C=CC(=O)N1CCN([C@H]2CCNc3c2nn(-c2ccc(Oc4ccc(C)cc4)cc2)c3C(N)=O)CC1 [Example 96, (7S)-2-[4-(4-methylphenoxy)phenyl]-7-[4-(prop-2-enoyl)piperazin-1-yl]-4,5,6,7-tetrahydro-2H-pyrazolo[4,3-b]pyridine-3-carboxamide]
12.5	C=CC(=O)N1C[C@@H]2C[C@H]1CN2C1CCNc2c1nn(-c1ccc(Oc3ccccc3)cc1)c2C(N)=O (stereo partly drawn) [Example 34, 2-(4-phenoxyphenyl)-7-[(1S,4S)-5-(prop-2-enoyl)-2,5-diazabicyclo[2.2.1]heptan-2-yl]-4,5,6,7-tetrahydro-2H-pyrazolo[4,3-b]pyridine-3-carboxamide]
678	C=CC(=O)N1C[C@H](C)N(C2CCNc3c2nn(-c2ccc(Oc4ccccc4)cc2)c3C(N)=O)C[C@H]1C (stereo partly drawn) [Example 18, 7-[(2S,5R)-2,5-dimethyl-4-(prop-2-enoyl)piperazin-1-yl]-2-(4-phenoxyphenyl)-4,5,6,7-tetrahydro-2H-pyrazolo[4,3-b]pyridine-3-carboxamide]
136	C=CC(=O)N1CCN([C@H]2CCNc3c2nn(-c2ccc(Oc4ccc(OC)cc4)cc2)c3C(N)=O)CC1 [Example 99, (7S)-2-[4-(4-methoxyphenoxy)phenyl]-7-[4-(prop-2-enoyl)piperazin-1-yl]-4,5,6,7-tetrahydro-2H-pyrazolo[4,3-b]pyridine-3-carboxamide]
29.4	C=CC(=O)N1CCCN(C2CCNc3c2nn(-c2ccc(Oc4ccccc4)cc2)c3C(N)=O)CC1 (centres unmarked) [Example 25, trifluoroacetic acid-2-(4-phenoxyphenyl)-7-[4-(prop-2-enoyl)-1,4-diazepan-1-yl]-4,5,6,7-tetrahydro-2H-pyrazolo[4,3-b]pyridine-3-carboxamide (1/1)]
76.7	CN(C)C/C=C/C(=O)N1CCN([C@@H]2CCNc3c2nn(-c2ccc(Oc4ccccc4)cc2)c3C(N)=O)CC1 [Example 46, (7R)-7-{4-[(2E)-4-(dimethylamino)but-2-enoyl]piperazin-1-yl}-2-(4-phenoxyphenyl)-4,5,6,7-tetrahydro-2H-pyrazolo[4,3-b]pyridine-3-carboxamide]
18.1	C=CC(=O)N1CCN([C@@H]2CCNc3c2nn(-c2ccc(Oc4ccccc4)cc2)c3C(N)=O)[C@@H](C)C1 (single isomer, unassigned) [Example 32]
51.1	NC(=O)/C=C/C(=O)N1CCN([C@@H]2CCNc3c2nn(-c2ccc(Oc4ccccc4)cc2)c3C(N)=O)CC1 [Example 48, (7R)-7-{4-[(2E)-4-amino-4-oxobut-2-enoyl]piperazin-1-yl}-2-(4-phenoxyphenyl)-4,5,6,7-tetrahydro-2H-pyrazolo[4,3-b]pyridine-3-carboxamide]
819	C/C=C/C(=O)N1CCN([C@@H]2CCNc3c2nn(-c2ccc(Oc4ccccc4)cc2)c3C(N)=O)CC1 [Example 47, (7R)-7-{4-[(2E)-but-2-enoyl]piperazin-1-yl}-2-(4-phenoxyphenyl)-4,5,6,7-tetrahydro-2H-pyrazolo[4,3-b]pyridine-3-carboxamide]
2.48	C=CC(=O)N1CCC(C2CCNc3c2nn(-c2ccc(Oc4ccccc4)cc2F)c3C(N)=O)CC1 (centres unmarked) [Example 37, 2-(2-fluoro-4-phenoxyphenyl)-7-[1-(prop-2-enoyl)piperidin-4-yl]-4,5,6,7-tetrahydro-2H-pyrazolo[4,3-b]pyridine-3-carboxamide]
24.2	C=CC(=O)N1CCC([C@@H]2CCNc3c2nn(-c2ccc(Oc4ccc(F)cc4F)cc2)c3C(N)=O)CC1 [Example 29, (7S)-2-[4-(2,4-difluorophenoxy)phenyl]-7-[1-(prop-2-enoyl)piperidin-4-yl]-4,5,6,7-tetrahydro-2H-pyrazolo[4,3-b]pyridine-3-carboxamide]
